Experimental data taken from ChEMBL document CHEMBL5113460, “Discovery of dual inhibitors of topoisomerase I and Cyclooxygenase-2 for colon cancer therapy” (Eur J Med Chem, 2022).
The source made the active and inactive calls. The rule behind the calls is not given here.

Assays:
[1] = system: RKO; test: Antitumor activity against human RKO cells assessed as inhibition of cell proliferation incubated for 72 hrs by MTT assay; format: functional, cell-based
[2] = biological target: Prostaglandin G/H synthase 2 (Homo sapiens) (UniProt P35354); test: Inhibition of COX-2 (unknown origin) at 30 uM
[3] = system: SW480; test: Antitumor activity against human SW480 cells assessed as inhibition of cell proliferation incubated for 72 hrs by MTT assay; format: functional, cell-based; conditions: SW480, 72 h
[4] = system: LoVo; test: Antitumor activity against human LoVo cells assessed as inhibition of cell proliferation incubated for 72 hrs by MTT assay; format: functional, cell-based
[5] = system: HT-29; test: Antitumor activity against human HT-29 cells assessed as inhibition of cell proliferation incubated for 72 hrs by MTT assay; format: functional, cell-based; conditions: HT-29, 72 h
[6] = biological target: Prostaglandin G/H synthase 2 (Homo sapiens) (UniProt P35354); test: Inhibition of COX-2 (unknown origin) at 3 uM
[7] = biological target: T1, DNA topoisomerase 1 (Homo sapiens) (UniProt P11387); test: Inhibition of topoisomerase 1 (unknown origin) assessed as relaxation of supercoiled plasmid pBR322 DNA at 1 uM incubated for 45 mins by ethidium bromide staining based agarose gel electrophoresis
T1 sequence (whole entry): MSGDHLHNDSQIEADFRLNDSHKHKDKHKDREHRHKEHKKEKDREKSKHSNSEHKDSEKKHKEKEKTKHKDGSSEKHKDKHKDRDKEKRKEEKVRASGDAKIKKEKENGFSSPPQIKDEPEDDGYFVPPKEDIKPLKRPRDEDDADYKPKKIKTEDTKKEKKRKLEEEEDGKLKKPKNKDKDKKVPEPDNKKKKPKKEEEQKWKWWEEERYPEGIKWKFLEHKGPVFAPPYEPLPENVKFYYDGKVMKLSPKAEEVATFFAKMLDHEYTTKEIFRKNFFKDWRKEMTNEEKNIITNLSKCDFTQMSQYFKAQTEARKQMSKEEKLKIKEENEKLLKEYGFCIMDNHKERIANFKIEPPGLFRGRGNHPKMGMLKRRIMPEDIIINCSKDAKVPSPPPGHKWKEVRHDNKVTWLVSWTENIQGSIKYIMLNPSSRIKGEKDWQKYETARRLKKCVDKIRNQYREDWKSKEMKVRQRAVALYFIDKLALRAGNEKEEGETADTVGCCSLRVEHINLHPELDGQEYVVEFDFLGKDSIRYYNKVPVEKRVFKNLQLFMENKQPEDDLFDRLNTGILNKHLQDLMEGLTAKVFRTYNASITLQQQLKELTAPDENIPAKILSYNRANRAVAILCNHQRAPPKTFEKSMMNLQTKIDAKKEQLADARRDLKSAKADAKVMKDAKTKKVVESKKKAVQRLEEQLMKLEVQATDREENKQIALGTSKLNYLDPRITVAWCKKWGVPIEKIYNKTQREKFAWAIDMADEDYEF

[8] = system: HCT-116; test: Antitumor activity against human HCT-116 cells assessed as inhibition of cell proliferation incubated for 72 hrs by MTT assay; format: functional, cell-based; conditions: HCT-116, 72 h
[9] = biological target: T1, DNA topoisomerase 1 (Homo sapiens); test: Inhibition of topoisomerase 1 (unknown origin) assessed as relaxation of supercoiled plasmid pBR322 DNA at 10 uM incubated for 45 mins by ethidium bromide staining based agarose gel electrophoresis
[10] = system: HT-29; test: Antitumor activity against human HT-29 cells xenografted in BALB/c mouse assessed as reduction of tumor weight at 30 mg/kg, ip bid and measured after 14 days; format: functional, organism-based; conditions: time 14.0 day
[11] = system: HT-29; test: Antitumor activity against human HT-29 cells xenografted in BALB/c mouse assessed as inhibition of tumor growth at 30 mg/kg, ip bid and measured after 14 days by vernier caliper method; format: functional; conditions: HT-29, 336 h, time 14 day, read-out: TGI
[12] = system: HT-29; test: Antitumor activity against human HT-29 cells xenografted in BALB/c mouse assessed as inhibition of tumor microvessel density by measuring CD31-index at 30 mg/kg, ip bid for 14 days by immunohistochemical analysis; format: functional; conditions: time 14 day
[13] = Water solubility of compound by HPLC analysis; format: physicochemical

Prostaglandin G/H synthase 2 (Homo sapiens), sequence (P35354 whole entry, looked up): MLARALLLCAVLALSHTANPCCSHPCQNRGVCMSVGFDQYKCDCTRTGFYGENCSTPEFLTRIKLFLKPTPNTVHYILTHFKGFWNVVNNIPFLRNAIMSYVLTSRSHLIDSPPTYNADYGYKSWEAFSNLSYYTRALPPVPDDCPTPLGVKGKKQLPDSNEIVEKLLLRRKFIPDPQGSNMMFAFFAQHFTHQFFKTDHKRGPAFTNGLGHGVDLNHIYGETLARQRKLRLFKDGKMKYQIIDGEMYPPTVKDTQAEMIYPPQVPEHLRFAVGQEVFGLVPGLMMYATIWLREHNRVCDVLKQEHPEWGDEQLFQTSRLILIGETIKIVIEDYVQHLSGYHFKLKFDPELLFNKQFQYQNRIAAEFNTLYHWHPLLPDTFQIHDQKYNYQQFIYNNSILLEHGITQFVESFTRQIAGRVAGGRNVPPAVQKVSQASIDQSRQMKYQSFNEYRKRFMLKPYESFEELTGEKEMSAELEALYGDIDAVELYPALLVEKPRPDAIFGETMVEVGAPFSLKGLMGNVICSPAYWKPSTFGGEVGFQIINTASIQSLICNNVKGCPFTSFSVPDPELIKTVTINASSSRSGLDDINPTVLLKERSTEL

Row | SMILES | IC50 [1] [µM] | inhibition [2] [%] | IC50 [3] [µM] | IC50 [4] [µM] | IC50 [5] [µM] | inhibition [6] [%] | inhibition [7] [%] | IC50 [8] [µM] | inhibition [9] [%] | Activity [10] | inhibition in vivo at 30 mg/kg [11] [%] | Inhibition_index [12] | solubility [13] [µg/mL]
1 | Cc1c(Cl)cccc1Nc1ccccc1C(=O)Nc1ccc(N2CCN(S(C)(=O)=O)CC2)cc1 | > 30 | 34.2 | > 30 | > 30 | > 30 | 24.5 | 19.5 | > 30 | 19.7 | – | – | – | –
2 | Cc1c(Cl)cccc1Nc1ccccc1C(=O)Nc1ccc(OCCNC(=O)OC(C)(C)C)cc1 | 0.75 | 28 | > 30 | 28.9 | 1.88 | – | – | > 30 | 18.2 | Active | 37.9 | 11.67 | < 1
3 | CCN1CCN(c2ccc(NC(=O)c3ccccc3Nc3cccc(Cl)c3C)cc2)CC1 | 10 | 100 | 15.8 | 9.51 | 2.99 | 37.1 | – | 11.5 | 71.9 | – | – | – | –
4 | Cc1c(Cl)cccc1Nc1ccccc1C(=O)Nc1ccc(N2CCN(C(C)C)CC2)cc1 | 10.8 | 83.7 | 10.3 | 8.29 | 2.97 | 30.1 | 37.5 | 12 | 54.6 | – | – | – | –
5 | Cc1c(Cl)cccc1Nc1ccccc1C(=O)Nc1ccc(OC(=O)CO)cc1 | 14.1 | 97.9 | > 30 | > 30 | 13.6 | 24.9 | – | 13.5 | 45.1 | – | – | – | –
6 | Cc1c(Cl)cccc1Nc1ccccc1C(=O)Nc1ccc(NCCO)cc1 | 29 | 100 | > 30 | > 30 | 12.9 | 69 | – | 13.9 | 40.9 | – | – | – | –
7 | Cc1c(Cl)cccc1Nc1ccccc1C(=O)Nc1ccc(N2CCN(C(=O)OC(C)(C)C)CC2)cc1 | > 30 | 41.9 | > 30 | > 30 | 11.9 | 18.9 | – | > 30 | 20.4 | – | – | – | –
8 | COCCOc1ccc(NC(=O)c2ccccc2Nc2cccc(Cl)c2C)cc1 | 15.4 | 36.5 | > 30 | 14.7 | 7.48 | 31.7 | 25 | > 30 | 29.3 | – | – | – | –
9 | Cc1c(Cl)cccc1Nc1ccccc1C(=O)Nc1ccc(S(N)(=O)=O)cc1 | 13.7 | 71.3 | 14.7 | 13.3 | 28.8 | 42 | 19.8 | 7.7 | 24.4 | – | – | – | –
10 | CCCN1CCN(c2ccc(NC(=O)c3ccccc3Nc3cccc(Cl)c3C)cc2)CC1 | 10.1 | 81 | 16.9 | 13.5 | 6.35 | 36.5 | – | 13.4 | 63.1 | – | – | – | –
11 | Cc1c(Cl)cccc1Nc1ccccc1C(=O)Nc1ccc(N2CCN(c3ccccc3)CC2)cc1 | > 30 | 37.8 | > 30 | > 30 | > 30 | 27.6 | 12.6 | > 30 | 13.9 | – | – | – | –
12 | COCC(=O)Oc1ccc(NC(=O)c2ccccc2Nc2cccc(Cl)c2C)cc1 | 14 | 47.7 | > 30 | > 30 | 18.7 | 25.2 | – | 12.6 | 16.6 | – | – | – | –
13 | O=c1[nH]cc(F)c(=O)[nH]1 [FLUOROURACIL] | – | – | > 30 | 8.35 | 12.2 | – | – | 7.77 | – | – | – | – | –
14 | Cc1c(Cl)cccc1Nc1ccccc1C(=O)Nc1ccc(OCCO)cc1 | 16.7 | 47.9 | > 30 | 24.7 | 6.83 | 22.6 | – | 9.65 | 46.2 | – | – | – | –
15 | Cc1c(Cl)cccc1Nc1ccccc1C(=O)Nc1ccc(C(N)=O)cc1 | > 30 | 3.53 | > 30 | 22.8 | 26.1 | – | – | 17.5 | 19.6 | – | – | – | –
16 | Cc1c(Cl)cccc1Nc1ccccc1C(=O)Nc1ccc(N2CCN(C)CC2)cc1 | 6.61 | 100 | 11.3 | 5 | 2.09 | 54.4 | 25.4 | 7.58 | 67.8 | – | – | – | –
17 | CCCCN1CCN(c2ccc(NC(=O)c3ccccc3Nc3cccc(Cl)c3C)cc2)CC1 | 15.2 | 58.3 | 18.3 | > 30 | 9.83 | 42.2 | 27.6 | 13.2 | 53.2 | – | – | – | –
18 | CC(=O)N1CCN(c2ccc(NC(=O)c3ccccc3Nc3cccc(Cl)c3C)cc2)CC1 | > 30 | 60.3 | > 30 | > 30 | > 30 | 37.6 | – | > 30 | 29 | – | – | – | –
19 | Cc1c(Cl)cccc1Nc1ccccc1C(=O)Nc1ccc(OCCN)cc1 | 9.22 | 43.2 | 25.3 | 12.9 | 12 | 28.7 | 41.3 | 6.41 | 63.8 | – | – | – | –
20 | Cc1c(Cl)cccc1Nc1ccccc1C(=O)Nc1ccc(N2CCOCC2)cc1 | > 30 | 42.9 | > 30 | > 30 | 6.4 | 41.6 | – | > 30 | 14.5 | – | – | – | –
